Assay results published in US6407093B1, “1,4-Diazacycloheptane derivatives for the treatment of neurological disorders” (Astrazeneca UK Limited, priority 1998, dated 2002).
Where a name gives a salt, the structure may show the parent alone.

How the values were obtained:
[1] = target: T1, [3H]-emopamil binding site (Cavia porcellus, UniProt Q60490); test: (−)-3H-Emopamil binding to guinea pig liver membranes; conditions: 0.96 nM (−)-3H-emopamil, 60 minutes at 37° C.
T1 construct: Guinea pig liver membranes: 40 mg/mL original wet weight; from tissue; host or cells: guinea pig liver membranes
T1 sequence (Q60490 1-229): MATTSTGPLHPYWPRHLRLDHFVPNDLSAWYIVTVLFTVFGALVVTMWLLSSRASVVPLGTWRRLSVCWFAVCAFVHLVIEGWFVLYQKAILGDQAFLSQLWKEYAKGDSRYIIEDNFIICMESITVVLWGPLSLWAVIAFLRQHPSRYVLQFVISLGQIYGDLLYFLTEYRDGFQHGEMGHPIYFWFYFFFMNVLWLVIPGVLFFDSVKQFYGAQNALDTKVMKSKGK
Procedure: -^3H-Emopamil Binding to Guinea Pig Liver Membranes
The method of (−)-^3H-emopamil binding was a modification of Zech, C., Staudinger R., Mühlbacher, J. and Glossmann, H. Novel sites for phenylalkylamines: characterization of a sodium-sensitive drug receptor with (−)-^3H-emopamil. Eur. J. Pharm. 208: 119-130, 1991.
The reaction mixture contained:
Assay buffer: 10 mM Tris-HCl, 0.1 mM phenylmethylsulfonyl fluoride (PMSF), 0.2% bovine serum albumin (BSA), pH 7.4 at 4° C.
Radioligand: 0.96 nM (−)-^3H-emopamil (Amersham).
Guinea pig liver membranes: 40 mg/mL original wet weight.
This mixture was incubated for 60 minutes at 37° C. The incubation was terminated by filtering with a Brandel Cell Harvester over Whatman GF/C filters that had been soaked for at least 120 minutes in 0.3% polyethylenimine (PEI) and washed three times with 5 mL of wash buffer containing 10 mM Tris-HCl, 10 mM MgCl2, 0.2% BSA, pH 7.4 at 25° C. Specific binding was defined with 10 μM emopamil.
Guinea-pig Liver Membrane Preparation
Male guinea pigs were sacrificed by CO2 asphyxiation with dry ice. The livers were quickly excised and weighed and rinsed in membrane preparation buffer containing 10 mM Hepes, 1 mM Tris base-EDTA, 250 mM sucrose, pH 7.4. The livers were then minced, homogenized in 10 times volume with a motor driven Teflon-glass homogenizer with three strokes on ice. […]

[2] = target: L-type voltage sensitive calcium channels (3H-D888 binding site); test: 3H-D-888 binding to rat brain cortical membranes; conditions: 1 nM 3H-D888, rat cortical membranes, 60 minutes at 25° C.; in vitro selectivity test
Procedure: -^3H-D-888 Binding to Rat Brain Cortical Membranes
The method of ^3H-D-888 binding was a modification of Reynolds, I. J., Snowman, A. M. and Synder, S. H. (−)-[^3H] Desmethoxyverapamil labels multiple calcium channel modular receptors in brain and skeletal muscle membranes: differentiation by temperature and dihydropyridines. J. Pharmacol. Exp. Ther. 237: no.3, 731-738, 1986.
The assay tubes contained the following: assay buffer: 50 mM Hepes, 0.2% BSA, pH 7.4 radioligand: 1ηM ^3H-D888 (Amersham) rat cortical membranes: 6 mg/ml original wet weight
This mixture was incubated for 60 minutes at 25° C. The assay was terminated by filtering with a Brandel Cell Harvester over Whatman GF/C filters that had been soaked for at least 120 minutes in 0.3% polyethylenamine (PEI) and washed three times with 5 mL of wash buffer containing 20 mM Hepes, 20 mM MgCl2, pH 7.4. Specific binding was measured with 10 μM methoxyverapamil (D-600). This assay was used to determine in vitro selectivity of compounds vs. L-type voltage sensitive calcium channels, i.e high affinity for the ^3H-D888 binding site would show a lack of selectivity.
Rat Brain Cortical Membrane Preparation
Male Sprague-Dawley Rats were sacrificed by decapitation and the brains were quickly excised. The cerebellum and brain stem were removed and discarded; and the rest of the brain was rinsed in 320 mM sucrose. […]

Row | SMILES | melting point [°C] | IC50 [1] [µM] | IC50 [2] [µM]
1 | CN1CCCN(C2CCSc3ccccc32)CC1 (centres unmarked) (as salt: maleate) [Example 1, 1 -Methyl-4-(3,4-dihydro-2H-benzothiopyran-4-yl)homopiperazine] | 117 to 118 | – | –
2 | CN1CCCN([C@H]2CCSc3ccccc32)CC1 (as salt: hydrochloride) [Example 5, S(+) 1-Methyl-4-(3,4-dihydro-2H-benzothiopyran-4yl)homopiperazine] | 208 to 209 | – | –
3 | CC(C)CN1CCCN(C2CCSc3ccccc32)CC1 (centres unmarked) (as salt: maleate) [Example 7, 1-Isobutyl-4-(3,4-dihydro-2H-benzothiopyran-4-yl)homopiperazine] | 148.2 to 148.6 | – | –
4 | CN1CCCN([C@H]2CCSc3ccccc32)CC1 [Example 5, S(+) 1-Methyl-4-(3,4-dihydro-2H-benzothiopyran-4yl)homopiperazine] | – | 0.009 | ~15
